Measured values taken from patent US20260212953A1, “An Integrative Framework to Identify Therapeutic Molecules for Treating Preterm Birth” (The Regents of the University of California, priority 2023, published 2026).
Entries after “also recorded” stand apart in the source; their conditions may differ.

What was measured:
[1] = tested on: primary human uterine smooth muscle cells (HUtSMC); assay: Collagen gel contraction assay; assay type: cell-based; details: for effect on HUtSMC contraction, contractile state stimulated by oxytocin: 100 nM oxytocin, OXY+DMSO as control; for effect on HUtSMC contraction, quiescent state: PBS+DMSO as control; for reduction of oxytocin-induced myometrial contractility: on average over the four named pre-clinical drugs
Excerpt: We performed experiments to determine the functional roles of the small molecules in regulating labor timing. Because labor onset is hallmarked by muscle contraction in the uterus, we asked whether these small molecules could alter smooth muscle contraction in the uterus. We performed collagen gel contraction assays on primary human uterine smooth muscle cells (HUtSMC) (Ying et al., 2015) to examine the modes of action of the top 9 candidate drugs from our prediction (FIG. 5D). For each drug, we tested its effect on modulating HUtSMC contractility in stimulated (by oxytocin to mimic labor-like phenotypes) and quiescent states by treating cells with oxytocin and vehicle, respectively. In either condition, we determined the pharmacological effects of our identified compounds on cellular contraction (each with at least 8 replicates).
Primary Human Uterine Smooth Muscle Cells (HUISMC) were purchased from PromoCells (Cat #C-12575, Fisher Scientific, MA). Collagen gel contraction assays were performed following (Kita et al., 2008; Ying et al., 2015) with modifications. Briefly, 150 ul of collagen (Cat #5074, SigmaAldrich) was added to each well in a 48-well plate. 80,000 HUtSMC suspension in 300 ul Smooth Muscle Cell Growth Basal Medium (Lonza #CC-3181) were seeded to each well after collagen polymerization for an hour. The cells were then treated with either testing compounds or DMSO in the presence of 100 nM oxytocin or PBS control. We carefully detached the collagen from the wells by tips after 1 hour incubation at 37° C., and fixed the cells with 4% paraformaldehyde in PBS for 30 minutes after 18 hours to ensure the equivalent culture durations for all groups before imaging. We captured bright-field images with microscope systems (AmScope, Irvine, CA), and measured the gel diameters in the captured images by ImageJ where the fold changes to no cell control were taken for statistical analysis. At least three biological replicates were performed for each compound, and technically triplicates were included in each biological replicate. Information about small molecules in the study could be found in Table 4.

uterine contractility = details: in vivo; cited from earlier work
[2] = tested on: smooth muscle cells in other organs; details: literature curation; cited from earlier work
HUtSMCs = assay: Cell viability of HUtSMCs treated with different concentrations of RKI-1447; assay type: cell-based, human
Excerpt: These experimental data provided quantitative guidance on its potential clinical deployment. […] As a potent inhibitor of the Rho-kinases ROCKI/II, RKI-1447 has been mainly investigated for therapeutic effects on cancer (Dyberg et al., 2019; Li et al., 2020; Patel et al., 2012), glaucoma (Cush et al., 1995), and nonalcoholic fatty liver disease (Wang and Jiang, 2020), with less focus on putative effects on modulating uterine contractility. […] These observations provided mechanistic basis for our drug discovery and experimental observations (FIGS. 5E and 5F).

[3] = tested on: primary myometrial cell cultures; assay: RNA-Seq of primary myometrial cell cultures treated with FSK or IL-1B (Stanfield et al., 2019a); assay type: cell-based, human; details: published RNA-Seq data re-examined; P=0.68
Excerpt: Performing functional enrichment analysis, we observed that the 69 Group I genes were highly enriched for functions associated with the regulation of muscle contraction (FDR=8.10e-4), more specifically with relaxation of muscle (FDR=2.71e-3, FIG. 3H). This explained their elevated expression prior to labor as well as their down-regulation upon delivery to promote muscle contractility.
Note that inflammatory factors are known to promote muscle contractility during labor (Khanjani et al., 2011; Mendelson et al., 2019), explaining the down-regulation of Group II genes before labor and their activation during labor. We examined primary myometrial cell cultures treated with IL-1B to mimic tissue-level inflammation at the labor onset (Stanfield et al., 2019a). […] In fact, Group-II genes included a key inflammatory activators AP-1 (with its subunits JUN and FOS), which play a central role in regulating smooth muscle contractility proteins at labor onset (Mendelson et al., 2019).
We downloaded normalized FPKM gene expression matrix of RNA-seq data (GSE134896 and GSE163773) (Ackerman et al., 2021; Stanfield et al., 2019a) from GEO for primary myometrial cell cultures following treatment with Forskolin and Interleukin-1B, and for primary myometrium samples harvested from 31 women at labor. […]

preterm labor = details: chronic treatment; cited from earlier work
preterm birth = details: daily low-dose; women of their first pregnancies; cited from earlier work
recurrent preterm labor = assay: Weekly 17-OHPC injections in women with previous spontaneous preterm labor (longitudinal cohort); assay type: in vivo, human; details: number among 48 study participants; 250 mg weekly i.m., 16 to 36 weeks of gestation
Protocol: We performed a longitudinal patient recruitment in Alabama. The study involved 48 study participants who had previous history of spontaneous preterm labor (Supplementary Table 5 for patient information). All women admitted to the study were with singleton pregnancy and received weekly intramuscular injections of Makena 17-OHPC 250 mg beginning at 16 weeks until 36 weeks of gestation. Among the 48 study participants, 28 were considered responders to the treatment and delivered at term, whereas the remaining 20 were considered non-responders and had spontaneous preterm birth after the treatment. We acknowledged the possibility that those considered to be responders might include individuals who delivered at term owing to other reasons and not affected by the treatment. However, if we could observe genetic factors indeed differentiating the two groups, especially those involved in progesterone signaling, the observation then should be explained by progestin treatment.
We performed longitudinal recruitment of 48 women in Alabama who had previous history of spontaneous preterm labor. All women admitted to the study were with singleton pregnancy and received weekly intramuscular injections of Makena OHP 250 mg beginning at 16 weeks until 36 weeks of gestation. This study was approved by Stanford Institutional Review Board (IRB #21956). […]

Compound: C[S+]([O-])c1ccc(-c2nc(-c3ccncc3)c(-c3ccc(F)cc3)[nH]2)cc1 (centres unmarked) [SB-203580]
- effect on HUtSMC contraction, contractile state stimulated by oxytocin [1]: increased the contraction
- effect on myometrial cell contractility in either quiescent or contractile state [1]: altered myometrial contractility
- effect on HUtSMC contraction, quiescent state [1]: significantly induced myometrial cell contraction

Compound: O=C(NCc1cccc(O)c1)Nc1nc(-c2ccncc2)cs1 [RKI-1447]
- effect on uterine contractility in rats (uterine contractility): attenuated uterine contractility
- side effects on smooth muscle cells in other organs, particularly cardiotoxicity [2]: minimal effects
- concentration at emergence of cellular toxicity (HUtSMCs; HUtSMCs): 50 µM
- effect on cell viability (HUtSMCs; over a wide dose-range): little effect on cell viability
- dose-response relationship on myometrial smooth muscle relaxation ([1]; 0 to 10 μM, quiescent (PBS) and contractile (OXY) states): dose-dependent effects on myometrial smooth muscle relaxation
- effect on HUtSMC contraction, contractile state stimulated by oxytocin [1]: attenuated myometrial contraction; also recorded: attenuated oxytocin-induced myometrial contractility
- effect on myometrial cell contractility in the presence and absence of oxytocin ([1]; both states): the only drug to prevent myometrial cell contractility in the presence and absence of oxytocin
- effect on myometrial cell contractility in either quiescent or contractile state [1]: altered myometrial contractility
- effect on HUtSMC contraction, quiescent state [1]: strongly reduced the contraction

Compound: IL-1B: cytokine used to mimic tissue-level inflammation at the labor onset
- response of Group II genes to treatment [3]: overall not responsive

Compound: COc1cccc(-c2cc(=O)c3ccccc3o2)c1N [PD-98059]
- efficacy in a rat model of preterm labor (preterm labor): demonstrated efficacy
- effect on myometrial cell contractility in either quiescent or contractile state [1]: absence of signal

Compound: CC(=O)Oc1ccccc1C(=O)O [aspirin]
- reduction of the risk of early preterm birth (before 34 gestational weeks) (preterm birth): 25%
- reduction of the risk of preterm birth (before 37 gestational weeks) (preterm birth): 11%

Compound: O=c1cc(N2CCOCC2)oc2c(-c3ccccc3)cccc12 [LY294002]
- reduction of oxytocin-induced myometrial contractility [1]: 15.73%

Compound: N#CC(=C(/N)Sc1ccccc1N)/C(C#N)=C(\N)Sc1ccccc1N [U0126]
- efficacy in a rat model of preterm labor (preterm labor): demonstrated efficacy
- effect on myometrial cell contractility in either quiescent or contractile state [1]: absence of signal

Compound: CN1CCN(Cc2ccc(-c3cnc4[nH]cc(-c5ccc6[nH]ccc6c5)c4c3)cc2)CC1 [URMC-099]
- effect on HUtSMC contraction, contractile state stimulated by oxytocin [1]: attenuated myometrial contraction; also recorded: attenuated oxytocin-induced myometrial contractility
- effect on myometrial cell contractility in either quiescent or contractile state [1]: altered myometrial contractility
- reduction of oxytocin-induced myometrial contractility [1]: 15.73%

Compound: CCCCCC(=O)O[C@]1(C(C)=O)CC[C@H]2[C@@H]3CCC4=CC(=O)CC[C@]4(C)[C@H]3CC[C@@]21C [17-OHPC, 17-hydroxyprogesterone caproate]
- non-responders (spontaneous preterm birth after the treatment) (recurrent preterm labor): 20
- responders (delivered at term) (recurrent preterm labor): 28

Compound: Brc1c(Br)c(Br)c2[nH]nnc2c1Br [4,5,6,7-tetrabromobenzotriazole]
- effect on HUtSMC contraction, contractile state stimulated by oxytocin [1]: attenuated myometrial contraction
- effect on HUtSMC contraction, contractile state stimulated by oxytocin ([1]; listed as TBBt): attenuated oxytocin-induced myometrial contractility
- effect on myometrial cell contractility in either quiescent or contractile state [1]: altered myometrial contractility
- reduction of oxytocin-induced myometrial contractility [1]: 15.73%

Compound: [H]/N=C(/N)SCCCn1cc(C2=C(c3cn(C)c4ccccc34)C(=O)NC2=O)c2ccccc21 [bisindolylmaleimide-ix]
- effect on HUtSMC contraction, contractile state stimulated by oxytocin [1]: attenuated myometrial contraction; also recorded: attenuated oxytocin-induced myometrial contractility
- effect on myometrial cell contractility in either quiescent or contractile state [1]: altered myometrial contractility
- reduction of oxytocin-induced myometrial contractility [1]: 15.73%
